Results: paper PMC5218480 (PLoS ONE, 2017)

Tested on: MV-4-11 cells
Experiment: Gene expression microarray analysis (Affymetrix PrimeView) and GSEA
Format: cell-based, human
Parameters: RFU PODN (11730768_x_at) / Fold change /veh PODN (11730768_x_at) / RFU LINC00158 (11744669_a_at) / Fold change /veh LINC00158 (11744669_a_at) / RFU DUSP10 (11751237_a_at) / Fold change /veh DUSP10 (11751237_a_at) / RFU ID3 (11757404_x_at) / Fold change /veh ID3 (11757404_x_at) / RFU PLEKHG5 (11737974_s_at) / Fold change /veh PLEKHG5 (11737974_s_at) / RFU LRRC4B (11730491_at) / Fold change /veh LRRC4B (11730491_at) / RFU GIMAP4 (11747438_a_at) / Fold change /veh GIMAP4 (11747438_a_at) / RFU KRT8 (11758183_x_at) / Fold change /veh KRT8 (11758183_x_at) / RFU CNN1 (11734310_a_at) / Fold change /veh CNN1 (11734310_a_at) / RFU VPS37D (11726825_at) / Fold change /veh VPS37D (11726825_at) / RFU C10orf10 (11716522_x_at) / Fold change /veh C10orf10 (11716522_x_at) / RFU KIR2DL2 /// KIR2DL4 /// KIR2DL5A /// KIR2DL5B /// KIR2DS1 /// KIR2DS2 /// KIR2DS3 /// KIR2DS4 /// KIR3DL3 /// KIR3DL3 /// KIR3DS1 (11738374_at) / Fold change /veh KIR2DL2 /// KIR2DL4 /// KIR2DL5A /// KIR2DL5B /// KIR2DS1 /// KIR2DS2 /// KIR2DS3 /// KIR2DS4 /// KIR3DL3 /// KIR3DL3 /// KIR3DS1 (11738374_at) / RFU C1QL1 (11718748_at) / Fold change /veh C1QL1 (11718748_at) / RFU TMPRSS4 (11747572_a_at) / Fold change /veh TMPRSS4 (11747572_a_at) / RFU HAMP (11756126_x_at) / Fold change /veh HAMP (11756126_x_at) / RFU RNFT2 (11725882_a_at) / Fold change /veh RNFT2 (11725882_a_at) / RFU NR4A2 (11747474_a_at) / Fold change /veh NR4A2 (11747474_a_at) / RFU ABCC12 (11746883_a_at) / Fold change /veh ABCC12 (11746883_a_at) / RFU TMEM136 (11760407_x_at) / Fold change /veh TMEM136 (11760407_x_at) / RFU CLDN22 /// WWC2 (11732394_at) / Fold change /veh CLDN22 /// WWC2 (11732394_at) / RFU HLA-DPB1 (11760878_x_at) / Fold change /veh HLA-DPB1 (11760878_x_at) / RFU SPINT1 (11716480_a_at) / Fold change /veh SPINT1 (11716480_a_at) / RFU GAP43 (11754022_s_at) / Fold change /veh GAP43 (11754022_s_at) / RFU A4GNT (11735810_at) / Fold change /veh A4GNT (11735810_at) / RFU PRB3 (11715151_x_at) / Fold change /veh PRB3 (11715151_x_at) / RFU TUBB4B (11761932_at) / Fold change /veh TUBB4B (11761932_at) / RFU CAPN14 (11732068_a_at) / Fold change /veh CAPN14 (11732068_a_at) / RFU TMCC2 (11721928_a_at) / Fold change /veh TMCC2 (11721928_a_at) / RFU IRGQ (11745062_a_at) / Fold change /veh IRGQ (11745062_a_at) / RFU FAM174B (11720279_a_at) / Fold change /veh FAM174B (11720279_a_at) / RFU TMPRSS4 (11748680_a_at) / Fold change /veh TMPRSS4 (11748680_a_at) / RFU FAM212B (11763350_a_at) / Fold change /veh FAM212B (11763350_a_at) / RFU PLEKHG5 (11743358_a_at) / Fold change /veh PLEKHG5 (11743358_a_at) / RFU ZSCAN30 (11745921_a_at) / Fold change /veh ZSCAN30 (11745921_a_at) / RFU CMKLR1 (11741424_a_at) / Fold change /veh CMKLR1 (11741424_a_at) / RFU LOC101060620 /// MAPK8IP1 (11723275_at) / Fold change /veh LOC101060620 /// MAPK8IP1 (11723275_at) / RFU SPTSSB (11747773_x_at) / Fold change /veh SPTSSB (11747773_x_at) / RFU PRSS12 (11739890_at) / Fold change /veh PRSS12 (11739890_at) / RFU BIN1 (11741810_x_at) / Fold change /veh BIN1 (11741810_x_at) / RFU WNT11 (11732464_a_at) / Fold change /veh WNT11 (11732464_a_at) / RFU C10orf10 (11716521_a_at) / Fold change /veh C10orf10 (11716521_a_at) / RFU C5orf56 (11738089_at) / Fold change /veh C5orf56 (11738089_at) / RFU CYB561 (11721691_x_at) / Fold change /veh CYB561 (11721691_x_at) / RFU ANKRD19P (11752326_a_at) / Fold change /veh ANKRD19P (11752326_a_at) / RFU OR2T12 /// OR2T33 /// OR2T8 (11738714_s_at) / Fold change /veh OR2T12 /// OR2T33 /// OR2T8 (11738714_s_at) / RFU VCAN (11748164_a_at) / Fold change /veh VCAN (11748164_a_at) / RFU JSRP1 (11732532_at) / Fold change /veh JSRP1 (11732532_at) / RFU KRTAP10-11 (11738290_x_at) / Fold change /veh KRTAP10-11 (11738290_x_at) / RFU MYO3A (11730013_a_at) / Fold change /veh MYO3A (11730013_a_at) / RFU EBF3 (11725865_a_at) / Fold change /veh EBF3 (11725865_a_at) / RFU CAMK2N1 (11719241_x_at) / Fold change /veh CAMK2N1 (11719241_x_at) / RFU C5orf56 (11738088_a_at) / Fold change /veh C5orf56 (11738088_a_at) / RFU OLFML3 (11715873_a_at) / Fold change /veh OLFML3 (11715873_a_at) / RFU LOC100653217 /// NTM (11731650_a_at) / Fold change /veh LOC100653217 /// NTM (11731650_a_at) / RFU MAPK11 (11762145_a_at) / Fold change /veh MAPK11 (11762145_a_at) / RFU FIZ1 (11724087_x_at) / Fold change /veh FIZ1 (11724087_x_at) / RFU OASL (11726364_x_at) / Fold change /veh OASL (11726364_x_at) / RFU SOX15 (11748057_x_at) / Fold change /veh SOX15 (11748057_x_at) / RFU CD79A (11719716_a_at) / Fold change /veh CD79A (11719716_a_at) / RFU HIST1H1D (11736915_at) / Fold change /veh HIST1H1D (11736915_at) / RFU CASKIN2 (11723855_a_at) / Fold change /veh CASKIN2 (11723855_a_at) / RFU LOC730098 (11760151_x_at) / Fold change /veh LOC730098 (11760151_x_at) / RFU OR4N2 (11742367_at) / Fold change /veh OR4N2 (11742367_at) / RFU PRRT2 (11749266_a_at) / Fold change /veh PRRT2 (11749266_a_at) / RFU SNX32 (11753110_a_at) / Fold change /veh SNX32 (11753110_a_at) / RFU CDHR5 (11726645_a_at) / Fold change /veh CDHR5 (11726645_a_at) / RFU RCAN1 (11760418_a_at) / Fold change /veh RCAN1 (11760418_a_at) / RFU FAM167A (11723789_a_at) / Fold change /veh FAM167A (11723789_a_at) / RFU FAM26E (11764081_at) / Fold change /veh FAM26E (11764081_at) / RFU ISYNA1 (11749810_s_at) / Fold change /veh ISYNA1 (11749810_s_at) / RFU ACY1 (11761880_at) / Fold change /veh ACY1 (11761880_at) / RFU 11764098_at / Fold change /veh 11764098_at / RFU SAMD14 (11745864_x_at) / Fold change /veh SAMD14 (11745864_x_at) / RFU NPB (11741838_a_at) / Fold change /veh NPB (11741838_a_at) / RFU TMPRSS6 (11731388_a_at) / Fold change /veh TMPRSS6 (11731388_a_at) / RFU KRTAP10-2 (11738614_at) / Fold change /veh KRTAP10-2 (11738614_at) / RFU ARHGAP8 /// PRR5-ARHGAP8 (11727945_x_at) / Fold change /veh ARHGAP8 /// PRR5-ARHGAP8 (11727945_x_at) / RFU KRTAP5-7 /// NADSYN1 (11734609_at) / Fold change /veh KRTAP5-7 /// NADSYN1 (11734609_at) / RFU RASL12 (11751679_a_at) / Fold change /veh RASL12 (11751679_a_at) / RFU CDKN2B (11736163_a_at) / Fold change /veh CDKN2B (11736163_a_at) / RFU PRF1 (11729649_at) / Fold change /veh PRF1 (11729649_at) / RFU, ZNF638 /// ZNF638-IT1 / Fold change vs veh, ZNF638 /// ZNF638-IT1 / RFU, PANK3 / Fold change vs veh, PANK3 / RFU, SH3YL1 / Fold change vs veh, SH3YL1 / RFU, ZEB2 / Fold change vs veh, ZEB2 / RFU, NRIP1 / Fold change vs veh, NRIP1 / RFU, PTTG1IP / Fold change vs veh, PTTG1IP / RFU, CAPN2 / Fold change vs veh, CAPN2 / RFU, MED14 / Fold change vs veh, MED14 / RFU, SNORA58 / Fold change vs veh, SNORA58 / RFU, C1orf63 / Fold change vs veh, C1orf63 / RFU, LRRFIP1 / Fold change vs veh, LRRFIP1 / RFU, NDUFAF7 / Fold change vs veh, NDUFAF7 / RFU, SLC12A2 / Fold change vs veh, SLC12A2 / RFU, IBTK / Fold change vs veh, IBTK / RFU, ESF1 / Fold change vs veh, ESF1 / Fold change vs veh, TMEM50B / RFU, TAOK1 / Fold change vs veh, TAOK1 / RFU, ACBD3 / Fold change vs veh, ACBD3 / RFU, TMA16 / Fold change vs veh, TMA16 / RFU, RWDD3 / Fold change vs veh, RWDD3 / RFU, BCAT1 / Fold change vs veh, BCAT1 / RFU, EDEM3 / Fold change vs veh, EDEM3 / RFU, TMEM33 / Fold change vs veh, TMEM33 / RFU, WDR75 / Fold change vs veh, WDR75 / RFU, AHCTF1 / Fold change vs veh, AHCTF1 / RFU, TFRC / Fold change vs veh, TFRC / RFU, ZDHHC17 / Fold change vs veh, ZDHHC17 / RFU, NOM1 / Fold change vs veh, NOM1 / RFU, ARL8B / Fold change vs veh, ARL8B / RFU, ZBTB11 / Fold change vs veh, ZBTB11 / RFU, TAMM41 / Fold change vs veh, TAMM41 / RFU, KIAA1704 /// LOC100996395 / Fold change vs veh, KIAA1704 /// LOC100996395 / RFU, ING1 / Fold change vs veh, ING1 / RFU, TRMT61B / Fold change vs veh, TRMT61B / RFU, FUBP3 / Fold change vs veh, FUBP3 / RFU, TP53 / Fold change vs veh, TP53 / RFU, TNKS2 / Fold change vs veh, TNKS2 / RFU, ZFP14 / Fold change vs veh, ZFP14 / RFU, ACTR2 / Fold change vs veh, ACTR2 / RFU, PPP3R1 / Fold change vs veh, PPP3R1 / RFU, PIK3R1 / Fold change vs veh, PIK3R1 / RFU, HNRNPA1 / Fold change vs veh, HNRNPA1 / RFU, RNF170 / Fold change vs veh, RNF170 / RFU, ZNF28 / Fold change vs veh, ZNF28 / RFU, RNGTT / Fold change vs veh, RNGTT / RFU, OGT / Fold change vs veh, OGT / RFU, BRD1 / Fold change vs veh, BRD1 / RFU, MARS / Fold change vs veh, MARS / RFU, ZNF655 / Fold change vs veh, ZNF655 / RFU, FAHD1 / Fold change vs veh, FAHD1 / RFU, BDP1 / Fold change vs veh, BDP1 / RFU, LRRCC1 / Fold change vs veh, LRRCC1 / RFU, ARID1A / Fold change vs veh, ARID1A / RFU, ZNF146 / Fold change vs veh, ZNF146 / RFU, ZNF330 / Fold change vs veh, ZNF330 / RFU, GPN3 / Fold change vs veh, GPN3 / RFU, C9orf123 / Fold change vs veh, C9orf123 / RFU, N4BP2L2 / Fold change vs veh, N4BP2L2 / RFU, ARFIP1 / Fold change vs veh, ARFIP1 / RFU, FAM179B / Fold change vs veh, FAM179B / RFU, BCL10 / Fold change vs veh, BCL10 / RFU, UHRF1BP1L / Fold change vs veh, UHRF1BP1L / RFU, BET1 / Fold change vs veh, BET1 / RFU, CNOT2 / Fold change vs veh, CNOT2 / RFU, ZNF268 / Fold change vs veh, ZNF268 / Fold change vs veh, ZNF507 / RFU, DGCR2 / Fold change vs veh, DGCR2 / RFU, WDSUB1 / Fold change vs veh, WDSUB1 / Fold change vs veh, HSP90B1 /// MIR3652 / RFU, ADSS / Fold change vs veh, ADSS / RFU, GK / Fold change vs veh, GK / RFU, ZNF148 / Fold change vs veh, ZNF148 / RFU, TAF9 / Fold change vs veh, TAF9 / RFU, SLC1A5 / Fold change vs veh, SLC1A5 / RFU, SLMO2 / Fold change vs veh, SLMO2 / RFU, ABCC4 / Fold change vs veh, ABCC4 / RFU, LOC101060439 /// RAP1B / Fold change vs veh, LOC101060439 /// RAP1B / RFU, RFX7 / Fold change vs veh, RFX7 / RFU, GTPBP10 / Fold change vs veh, GTPBP10 / RFU, CNEP1R1 / Fold change vs veh, CNEP1R1 / RFU, BIVM-ERCC5 /// ERCC5 / Fold change vs veh, BIVM-ERCC5 /// ERCC5 / RFU, ILF3 / Fold change vs veh, ILF3 / RFU 11762660_at / Fold change /veh 11762660_at / RFU VCAN (11757783_s_at) / Fold change /veh VCAN (11757783_s_at) / RFU DDX43 (11728927_at) / Fold change /veh DDX43 (11728927_at) / RFU KRT8 (11758188_x_at) / Fold change /veh KRT8 (11758188_x_at) / RFU NKD1 (11759106_at) / Fold change /veh NKD1 (11759106_at) / RFU SRD5A1 (11742802_a_at) / Fold change /veh SRD5A1 (11742802_a_at) / RFU TPSAB1 /// TPSB2 (11721975_s_at) / Fold change /veh TPSAB1 /// TPSB2 (11721975_s_at) / RFU GSTM3 (11746129_a_at) / Fold change /veh GSTM3 (11746129_a_at) / RFU IL23R (11737362_x_at) / Fold change /veh IL23R (11737362_x_at) / RFU TMEM51 (11727254_a_at) / Fold change /veh TMEM51 (11727254_a_at) / RFU PIWIL2 (11732686_x_at) / Fold change /veh PIWIL2 (11732686_x_at) / RFU ORM1 (11744905_x_at) / Fold change /veh ORM1 (11744905_x_at) / RFU CCDC152 (11743942_at) / Fold change /veh CCDC152 (11743942_at) / RFU ECM1 (11717891_a_at) / Fold change /veh ECM1 (11717891_a_at) / RFU IL23R (11748794_a_at) / Fold change /veh IL23R (11748794_a_at) / RFU TNFAIP8L3 (11732012_x_at) / Fold change /veh TNFAIP8L3 (11732012_x_at) / RFU MBOAT4 (11741988_at) / Fold change /veh MBOAT4 (11741988_at) / RFU 11764193_at / Fold change /veh 11764193_at / RFU TMEM53 (11763286_at) / Fold change /veh TMEM53 (11763286_at) / RFU MAGEB2 (11727129_at) / Fold change /veh MAGEB2 (11727129_at) / RFU TMEM200A (11744735_a_at) / Fold change /veh TMEM200A (11744735_a_at) / RFU CCDC152 (11751479_a_at) / Fold change /veh CCDC152 (11751479_a_at) / RFU FAM211A (11726209_a_at) / Fold change /veh FAM211A (11726209_a_at) / RFU RGS16 (11746705_a_at) / Fold change /veh RGS16 (11746705_a_at) / RFU VCAN (11755009_s_at) / Fold change /veh VCAN (11755009_s_at) / RFU RHOB (11743442_s_at) / Fold change /veh RHOB (11743442_s_at) / RFU RGS16 (11720943_a_at) / Fold change /veh RGS16 (11720943_a_at) / RFU RGS16 (11720944_at) / Fold change /veh RGS16 (11720944_at) / RFU, VPS4B / Fold change vs veh, VPS4B / RFU, CREB1 / Fold change vs veh, CREB1 / RFU, DNAJC13 / Fold change vs veh, DNAJC13 / RFU, GNAQ / Fold change vs veh, GNAQ / RFU, CDK5R1 / Fold change vs veh, CDK5R1 / RFU, ZRANB3 / Fold change vs veh, ZRANB3 / RFU, CUL4A / Fold change vs veh, CUL4A / RFU, CCNY / Fold change vs veh, CCNY / RFU, UFL1 / Fold change vs veh, UFL1 / RFU, COG3 / Fold change vs veh, COG3 / RFU, DIAPH2 / Fold change vs veh, DIAPH2 / RFU, SKA2 / Fold change vs veh, SKA2 / RFU, AFF3 / Fold change vs veh, AFF3 / RFU, LMF1 / Fold change vs veh, LMF1 / RFU, IPO11 / Fold change vs veh, IPO11 / RFU, DFFB / Fold change vs veh, DFFB / RFU, FOXP1 / Fold change vs veh, FOXP1 / RFU, CARD8 / Fold change vs veh, CARD8 / RFU, STRN3 / Fold change vs veh, STRN3 / RFU, ADK / Fold change vs veh, ADK / RFU, RASSF2 / Fold change vs veh, RASSF2 / RFU, WIPF1 / Fold change vs veh, WIPF1 / RFU, LARP1B / Fold change vs veh, LARP1B / RFU, RASA1 / Fold change vs veh, RASA1 / RFU, RB1 / Fold change vs veh, RB1 / RFU, PPFIA1 / Fold change vs veh, PPFIA1 / RFU, MAT2A / Fold change vs veh, MAT2A / RFU, CCT5 / Fold change vs veh, CCT5 / RFU, WDR92 / Fold change vs veh, WDR92 / RFU, CUX1 / Fold change vs veh, CUX1 / RFU, TTC7A / Fold change vs veh, TTC7A / RFU, TMEM135 / Fold change vs veh, TMEM135 / RFU, DEPTOR / Fold change vs veh, DEPTOR / RFU, CPM / Fold change vs veh, CPM / RFU, DNAJB6 / Fold change vs veh, DNAJB6 / RFU, CACNA2D3 / Fold change vs veh, CACNA2D3 / RFU, DTX4 / Fold change vs veh, DTX4 / RFU, TFCP2 / Fold change vs veh, TFCP2 / RFU, GMCL1 /// GMCL1P1 / Fold change vs veh, GMCL1 /// GMCL1P1 / RFU, AEBP2 / Fold change vs veh, AEBP2 / RFU, SNHG1 /// SNORD22 /// SNORD25 /// SNORD26 /// SNORD27 /// SNORD28 /// SNORD29 /// SNORD31 / Fold change vs veh, SNHG1 /// SNORD22 /// SNORD25 /// SNORD26 /// SNORD27 /// SNORD28 /// SNORD29 /// SNORD31 / Fold change (Aza/veh), C12orf56 (ProbeSet 11735607_a_at) / Fold change (ACY-1035/veh), C12orf56 (ProbeSet 11735607_a_at) / Fold change (Aza/veh), FGFR1OP (ProbeSet 11751329_s_at) / Fold change (ACY-1035/veh), FGFR1OP (ProbeSet 11751329_s_at) / Fold change (Aza/veh), VPS36 (ProbeSet 11739960_a_at) / Fold change (ACY-1035/veh), VPS36 (ProbeSet 11739960_a_at) / RFU SYPL1 (11715823_x_at) / Fold change /veh SYPL1 (11715823_x_at) / RFU IGFBP7 (11715501_s_at) / Fold change /veh IGFBP7 (11715501_s_at) / RFU REEP3 (11722064_at) / Fold change /veh REEP3 (11722064_at) / RFU IGLL1 (11728026_x_at) / Fold change /veh IGLL1 (11728026_x_at): dose or concentration left out as unconfirmed
Details: MV-4-11 cells, 48 hours

## Nc1ccc(-c2cccs2)cc1NC(=O)c1ccc2c(c1)cc(C1CC1)n2CCN1CCOCC1 [ACY-1035]
  RFU SYPL1 (11715823_x_at): 565.47 RFU
